The values that follow come from ChEMBL document CHEMBL1140805, “1-Toluene-sulfonyl-3-[(3'-hydroxy-5'-substituted)-gamma-butyrolactone]-indoles: synthesis, COX-2 inhibition and anti-cancer activities” (Bioorg Med Chem Lett, 2008).

By inhibition is commonly meant the change of the read-out against control, counted positive when it falls. High values mean a response far below the control, low ones a response near the control. Usually logP stands for a log measure of how a compound divides between an organic and an aqueous phase. A word on the IC50: it is the midpoint of a concentration-inhibition curve. Low readings indicate higher potency, high ones lower potency.

The target in data set [1] is T1, Prostaglandin G/H synthase 1 (Ovis aries) (UniProt P05979).
T1 sequence (whole entry): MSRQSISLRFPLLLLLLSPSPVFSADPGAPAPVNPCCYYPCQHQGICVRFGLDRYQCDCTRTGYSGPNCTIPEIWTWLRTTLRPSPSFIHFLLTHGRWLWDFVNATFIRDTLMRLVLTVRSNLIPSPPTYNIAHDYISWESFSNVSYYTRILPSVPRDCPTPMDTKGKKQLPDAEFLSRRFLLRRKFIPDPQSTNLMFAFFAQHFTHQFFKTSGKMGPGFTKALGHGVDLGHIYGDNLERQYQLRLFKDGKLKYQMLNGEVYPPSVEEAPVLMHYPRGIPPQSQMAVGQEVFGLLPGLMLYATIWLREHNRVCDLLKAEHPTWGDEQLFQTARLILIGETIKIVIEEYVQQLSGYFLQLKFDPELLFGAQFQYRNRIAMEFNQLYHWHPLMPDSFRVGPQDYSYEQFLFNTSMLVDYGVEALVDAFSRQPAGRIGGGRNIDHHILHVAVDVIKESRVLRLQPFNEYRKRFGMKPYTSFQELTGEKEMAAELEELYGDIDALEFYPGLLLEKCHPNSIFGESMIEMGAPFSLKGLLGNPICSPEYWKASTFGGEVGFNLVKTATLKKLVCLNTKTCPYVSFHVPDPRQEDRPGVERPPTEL
The data set is described as follows: Inhibition of ovine COX1 at 10 uM.

The species entered for data set [2] is Ovis aries. The data set is described as follows: Selectivity index, Ratio of IC50 for ovine COX2 to IC50 for ovine COX1.
Data set [3] in a line: Partition coefficient, log P of the compound. In kind it is physicochemical. Particulars: octanol/water.
Data set [4] addresses T2, Prostaglandin G/H synthase 1 (Ovis aries, UniProt P05979).
T2 sequence (P05979 whole entry): T1 sequence (whole entry)

As for `CS(=O)(=O)c1ccc(C2=C(c3ccccc3)C(=O)OC2)cc1`, in data set [1], the inhibition came to 75%.
As for `Cc1ccc(S(=O)(=O)n2cc([C@@]3(O)C[C@H](CSC#N)OC3=O)c3ccccc32)cc1`, the Ratio IC50 in data set [2] is more than 1000. This compound returned an inhibition in data set [1] of 65%. Also, the logP in data set [3] was determined as 1.78. Besides, in data set [4], the IC50 is less than 10 µM.
On the same counts, the results for `CCSC[C@H]1C[C@](O)(c2cn(S(=O)(=O)c3ccc(C)cc3)c3ccccc23)C(=O)O1` are less than 1000, 35%, 2.38 and more than 10 µM.
`Cc1ccc(S(=O)(=O)n2cc([C@@]3(O)C[C@H](CI)OC3=O)c3ccccc32)cc1` registered an inhibition in data set [1] of 40%. The compound also registered a logP in data set [3] of 2.49. In data set [4], this compound displayed an IC50 of more than 10 µM.
